From BindingDB's records for doi:10.1021/jm990967h (Glaxo Wellcome Medicines Research Centre, 2000)
“And” between values parts separate entries of the source, which are not always exact repeats. Equal entries are not always repeated.

Target: Gastrin/cholecystokinin type B receptor (Cavia porcellus)
Assay: In vitro inhibition of binding of [3H]pCCK-8 against Cholecystokinin type B receptor of guinea pig cerebral cortex membranes

SMILES | Ki
O=C(Nc1ccc(O)cc1)NC1C(=O)N(CC23C[C@H]4C[C@@H](C2)C[C@@H](C3)C4)c2ccccc2N(c2ccccc2)C1=O (stereo not given in full) | 0.661 nM
O=C(Nc1ccccc1)NC1C(=O)N(CCC2CCCC2)c2ccccc2N(c2ccccc2F)C1=O (stereo not given) | 0.724 nM
CC(C)(C)CCN1C(=O)C(NC(=O)Nc2cccc(C#N)c2)C(=O)N(c2ccccc2)c2ccccc21 (stereo not given) | 0.646 nM
CN(C)c1ccc(NC(=O)NC2C(=O)N(CCC3CCCC3)c3ccccc3N(c3ccccc3F)C2=O)cc1 (stereo not given) | 4.7 nM
CN(C)c1cccc(NC(=O)NC2C(=O)N(c3ccccc3)c3ccccc3N(C3CC4CCC3C4)C2=O)c1 (stereo not given) | 1 nM
CN(C)c1cccc(NC(=O)NC2C(=O)N(CC34C[C@H]5C[C@@H](C3)C[C@@H](C4)C5)c3ccccc3N(c3ccccc3)C2=O)c1 (stereo not given in full) | 1.1 nM
O=C(Nc1cccc(C2N=NN=N2)c1)NC1C(=O)N(c2ccccc2)c2ccccc2N(C2[C@H]3C[C@@H]4C[C@@H](C[C@H]2C4)C3)C1=O (stereo not given in full) | 2.1 nM
CSc1cccc(NC(=O)NC2C(=O)N(CCC(C)(C)C)c3ccccc3N(c3ccccc3F)C2=O)c1 (stereo not given) | 0.724 nM
CC(C)(C)CCN1C(=O)C(NC(=O)Nc2cccc(C3N=NN=N3)c2)C(=O)N(c2ccccc2)c2ccccc21 (stereo not given) | 0.288 nM
CC(C)CC(C)N1C(=O)C(NC(=O)Nc2ccccc2)C(=O)N(c2ccccc2)c2ccccc21 (stereo not given) | 2.1 nM
Nc1cccc(NC(=O)NC2C(=O)N(CC34C[C@H]5C[C@@H](C3)C[C@@H](C4)C5)c3ccccc3N(c3ccccc3)C2=O)c1 (stereo not given in full) | 0.295 nM
CC(O)C(O)Nc1cccc(NC(=O)NC2C(=O)N(CC34C[C@H]5C[C@@H](C3)C[C@@H](C4)C5)c3ccccc3N(c3ccccc3)C2=O)c1 (stereo not given in full) | 1.3 nM and 0.676 nM
CSc1cccc(NC(=O)NC2C(=O)N(CCC(C)C)c3ccccc3N(c3ccccc3F)C2=O)c1 (stereo not given) | 0.331 nM
CSc1cccc(NC(=O)NC2C(=O)N(CCC(C)(C)C)c3ccccc3N(c3ccccc3)C2=O)c1 (stereo not given) | 0.49 nM
O=C(Nc1ccccc1)NC1C(=O)N(CCc2ccccc2)c2ccccc2N(c2ccccc2)C1=O (stereo not given) | 8.3 nM
CC(=O)Nc1cccc(NC(=O)NC2C(=O)N(CC34C[C@H]5C[C@@H](C3)C[C@@H](C4)C5)c3ccccc3N(c3ccccc3)C2=O)c1 (stereo not given in full) | 1.3 nM
O=C(Nc1ccccc1)NC1C(=O)N(CC2[C@H]3C[C@@H]4C[C@@H](C[C@H]2C4)C3)c2ccccc2N(c2ccccc2)C1=O (stereo not given in full) | 1.9 nM
O=C(Nc1cccc(C(=O)O)c1)NC1C(=O)N(CC23C[C@H]4C[C@@H](C2)C[C@@H](C3)C4)c2ccccc2N(c2ccccc2)C1=O (stereo not given in full) | 0.977 nM
CC(C)C(C)CN1C(=O)C(NC(=O)Nc2ccccc2)C(=O)N(c2ccccc2)c2ccccc21 (stereo not given) | 1.1 nM
O=C(Nc1cccc(Cl)c1)NC1C(=O)N(c2ccccc2)c2ccccc2N(C2CC3CCC2C3)C1=O (stereo not given) | 1.7 nM
O=C(Nc1ccc(Br)cc1)NC1C(=O)N(CC23C[C@H]4C[C@@H](C2)C[C@@H](C3)C4)c2ccccc2N(c2ccccc2)C1=O (stereo not given in full) | 1.4 nM
O=C(Nc1cccc(C2N=NN=N2)c1)NC1C(=O)N(CCC2CCCC2)c2ccccc2N(c2ccccc2F)C1=O (stereo not given) | 0.224 nM
O=C(Nc1ccccc1)NC1C(=O)N(c2ccccc2)c2ccccc2N(C2CC3CCC2C3)C1=O (stereo not given) | 1.5 nM

SMILES | Ki
CCOC(=O)c1cccc(NC(=O)NC2C(=O)N(CC34C[C@H]5C[C@@H](C3)C[C@@H](C4)C5)c3ccccc3N(c3ccccc3)C2=O)c1 (stereo not given in full) | 3 nM
CN(C)c1cccc(NC(=O)NC2C(=O)N(CCC(C)(C)C)c3ccccc3N(c3ccccc3F)C2=O)c1 (stereo not given) | 0.603 nM
O=C(Nc1cccc(C(=O)OCCN2CCOCC2)c1)NC1C(=O)N(CC23C[C@H]4C[C@@H](C2)C[C@@H](C3)C4)c2ccccc2N(c2ccccc2)C1=O (stereo not given in full) | 0.562 nM
CCCCN1C(=O)C(NC(=O)Nc2ccccc2)C(=O)N(c2ccccc2)c2ccccc21 (stereo not given) | 6.2 nM
CSc1cccc(NC(=O)NC2C(=O)N(CCC34C[C@H]5C[C@@H](C3)C[C@@H](C4)C5)c3ccccc3N(c3ccccc3)C2=O)c1 (stereo not given in full) | 60 nM
O=C(Nc1cccc(CO)c1)NC1C(=O)N(CC23C[C@H]4C[C@@H](C2)C[C@@H](C3)C4)c2ccccc2N(c2ccccc2)C1=O (stereo not given in full) | 0.178 nM
CN(C)c1cccc(NC(=O)NC2C(=O)N(c3ccccc3)c3ccccc3N(C3[C@H]4C[C@@H]5C[C@@H](C[C@H]3C5)C4)C2=O)c1 (stereo not given in full) | 2.3 nM
CC(C)CCN1C(=O)C(NC(=O)Nc2ccccc2)C(=O)N(c2ccccc2F)c2ccccc21 (stereo not given) | 7.8 nM
CC(C)(C)CCN1C(=O)C(NC(=O)Nc2ccccc2)C(=O)N(c2ccccc2F)c2ccccc21 (stereo not given) | 0.955 nM
CC(C)(C)CCN1C(=O)C(NC(=O)Nc2ccccc2)C(=O)N(c2ccccc2)c2ccccc21 (stereo not given) | 0.676 nM
CC(C)Cn1nnc(-c2cccc(NC(=O)NC3C(=O)N(CCC(C)(C)C)c4ccccc4N(c4ccccc4)C3=O)c2)n1 (stereo not given) | 2.5 nM
O=C(Nc1ccccc1)NC1C(=O)N(CCC23C[C@H]4C[C@@H](C2)C[C@@H](C3)C4)c2ccccc2N(c2ccccc2)C1=O (stereo not given in full) | 34 nM
CN(C)c1cccc(NC(=O)NC2C(=O)N(CCC3CCCC3)c3ccccc3N(c3ccccc3F)C2=O)c1 (stereo not given) | 0.676 nM
O=C(O)CCCOc1ccc(NC(=O)NC2C(=O)N(CC34C[C@H]5C[C@@H](C3)C[C@@H](C4)C5)c3ccccc3N(c3ccccc3)C2=O)cc1 (stereo not given in full) | 3.8 nM
O=C(Nc1cccc([N+](=O)[O-])c1)NC1C(=O)N(CC23C[C@H]4C[C@@H](C2)C[C@@H](C3)C4)c2ccccc2N(c2ccccc2)C1=O (stereo not given in full) | 1.9 nM
CCOC(=O)CCCOc1ccc(NC(=O)NC2C(=O)N(CC34C[C@H]5C[C@@H](C3)C[C@@H](C4)C5)c3ccccc3N(c3ccccc3)C2=O)cc1 (stereo not given in full) | 5.2 nM
O=C(Nc1cccc(O)c1)NC1C(=O)N(CC23C[C@H]4C[C@@H](C2)C[C@@H](C3)C4)c2ccccc2N(c2ccccc2)C1=O (stereo not given in full) | 0.575 nM
O=Cc1cccc(NC(=O)NC2C(=O)N(CC34C[C@H]5C[C@@H](C3)C[C@@H](C4)C5)c3ccccc3N(c3ccccc3)C2=O)c1 (stereo not given in full) | 0.955 nM
CN(C)c1cccc(NC(=O)NC2C(=O)N(CCC34C[C@H]5C[C@@H](C3)C[C@@H](C4)C5)c3ccccc3N(c3ccccc3)C2=O)c1 (stereo not given in full) | 13 nM
CC(C)CCN1C(=O)C(NC(=O)Nc2cccc(N(C)C)c2)C(=O)N(c2ccccc2F)c2ccccc21 (stereo not given) | 0.209 nM and 1.9 nM and 0.251 nM
CC(C)(C)CCN1C(=O)C(NC(=O)Nc2cccc(OC(F)(F)F)c2)C(=O)N(c2ccccc2)c2ccccc21 (stereo not given) | 2.9 nM
CC(C)(C1CCCC1)N1C(=O)C(NC(=O)Nc2cccc(C3N=NN=N3)c2)C(=O)N(c2ccccc2)c2ccccc21 (stereo not given) | 1.5 nM
